The record followed here is patent US7754239B2, “Capsule for rapid solubilization and release of the content” (V. Mane Fils S.A., priority 2001, dated 2010).

The structures appear in SMILES notation.

The data set in a line: In vitro kinetics of release of aromatic molecules in water (test A samples). The format is physicochemical. The settings on record: water 37° C., pH 6.5, 5 mm capsule of Example 3; for Total concentration of aromatic molecules over all samples: Total 0-70 seconds. The procedure:
A 5 mm capsule, the composition of which is given in Table 5, is analyzed according to test A.
The taking of various samples makes it possible to establish the in vitro kinetics of release of aromatic molecules in water at 37° C.+/−1° C. and at pH 6.5. Table 6 indicates the concentration of aromatic molecules of various samples.
It may be noted that most of the molecules are released within 40 s, at most within 70 s.

Consider `CC1CCC(C(C)C)C(O)C1` (centres unmarked) [Menthol], for which the “Total concentration of aromatic molecules over all samples” value was found to be 399 ppm. Also, the “concentration of aromatic molecules of sample” value (“concentration … of sample” below) (time 0-5 seconds) came out at 47 ppm. For the same molecule, the “concentration … of sample” value (time 5-10 seconds) was 67 ppm. In addition, the “concentration … of sample” value (time 10-15 seconds) amounted to 63 ppm. In addition, where the note is “time 15-20 seconds”, the “concentration … of sample” value is 90 ppm. The “concentration … of sample” value (time 20-30 seconds) stood at 62 ppm. Further, for the setting “time 30-40 seconds”, the “concentration … of sample” value turned out to be 24 ppm. Moreover, the “concentration … of sample” value (time 40-50 seconds) was 24 ppm. Besides, the “concentration … of sample” value (time 50-60 seconds) amounted to 16 ppm. Where the note is “time 60-70 seconds”, the “concentration … of sample” value is recorded as 6 ppm.
Take `Cc1ccc(C(C)C)c(O)c1` [Thymol]: the “Total concentration of aromatic molecules over all samples” value was determined as 139 ppm. Besides, the “concentration … of sample” value (time 0-5 seconds) is on record as 19 ppm. The “concentration … of sample” value (time 5-10 seconds) is listed as 28 ppm. Besides, the “concentration … of sample” value (time 10-15 seconds) came out at 22 ppm. In addition, where the note is “time 15-20 seconds”, the “concentration … of sample” value is listed as 31 ppm. For the same molecule, the “concentration … of sample” value (time 20-30 seconds) is 20 ppm. Further, the “concentration … of sample” value (time 30-40 seconds) was 7 ppm. Besides, the “concentration … of sample” value (time 40-50 seconds) was determined as 7 ppm. Where the note is “time 50-60 seconds”, the “concentration … of sample” value was 4 ppm. For the same molecule, under “time 60-70 seconds”, the “concentration … of sample” value worked out at 1 ppm.
